Measured values taken from ChEMBL document CHEMBL4665640, “Structure-Activity Relationship Studies of 3- or 4-Pyridine Derivatives of DS-6930” (ACS Med Chem Lett, 2019).

Experiments:
[1] = Clearance in cynomolgus monkey at 1 mg/kg, iv by LC-MS/MS analysis; type: ADME, organism-based, Macaca fascicularis; conditions: in vivo
[2] = Microsomal stability in monkey liver microsomes assessed as parent compound remaining after 30 mins; type: ADME, Macaca mulatta, Microsome; conditions: rhesus monkey, read-out: Stabilty
[3] = Bioavailability in cynomolgus monkey at 1 mg/kg, iv by LC-MS/MS analysis; type: ADME, organism-based, Macaca fascicularis; conditions: in vivo
[4] = 1-octanol/phosphate buffer distribution coefficient, log D of the compound at pH 7.4 measured after 30 mins by HPLC-LC/MS based shake flask method; type: physicochemical
[5] = Half life in cynomolgus monkey at 3 mg/kg, po by LC-MS/MS analysis; type: ADME, organism-based, Macaca fascicularis; conditions: in vivo
[6] = Cmax in cynomolgus monkey at 3 mg/kg, po by LC-MS/MS analysis; type: ADME, organism-based, Macaca fascicularis; parameters: route oral, dose 3 mg/kg; conditions: in vivo
[7] = Microsomal stability in human liver microsomes assessed as parent compound remaining after 30 mins; type: ADME, Microsome; conditions: read-out: Stabilty
[8] = Volume of distribution at steady state in cynomolgus monkey at 1 mg/kg, iv by LC-MS/MS analysis; type: ADME, organism-based, Macaca fascicularis; conditions: in vivo, read-out: Vdss
[9] = AUClast in cynomolgus monkey at 3 mg/kg, po by LC-MS/MS analysis; type: ADME, organism-based, Macaca fascicularis; parameters: time 0 - last, route oral, dose 3 mg/kg; conditions: in vivo
[10] = Tmax in cynomolgus monkey at 3 mg/kg, po by LC-MS/MS analysis; type: ADME, organism-based, Macaca fascicularis; conditions: in vivo
[11] = Microsomal stability in rat liver microsomes assessed as parent compound remaining after 30 mins; type: ADME, Microsome; conditions: read-out: Stabilty
[12] = Bioavailability in rat at 1 mg/kg, iv by LC-MS/MS analysis; type: ADME, organism-based; conditions: in vivo
[13] = Volume of distribution at steady state in rat at 1 mg/kg, iv by LC-MS/MS analysis; type: ADME, organism-based; conditions: in vivo, read-out: Vdss
[14] = Cmax in mouse at 3 mg/kg, po by LC-MS/MS analysis; type: ADME, organism-based; parameters: route oral, dose 3 mg/kg; conditions: in vivo
[15] = Clearance in rat at 1 mg/kg, iv by LC-MS/MS analysis; type: ADME, organism-based; conditions: in vivo
[16] = Clearance in mouse at 1 mg/kg, iv by LC-MS/MS analysis; type: ADME, organism-based; conditions: in vivo
[17] = AUClast in rat at 3 mg/kg, po by LC-MS/MS analysis; type: ADME, organism-based; parameters: route oral, time 0 - last, dose 3 mg/kg; conditions: in vivo
[18] = Half life in mouse at 3 mg/kg, po by LC-MS/MS analysis; type: ADME, organism-based; conditions: in vivo
[19] = Cmax in rat at 3 mg/kg, po by LC-MS/MS analysis; type: ADME, organism-based; parameters: route oral, dose 3 mg/kg; conditions: in vivo
[20] = Volume of distribution at steady state in mouse at 1 mg/kg, iv by LC-MS/MS analysis; type: ADME, organism-based; conditions: in vivo, read-out: Vdss
[21] = Tmax in mouse at 3 mg/kg, po by LC-MS/MS analysis; type: ADME, organism-based; conditions: in vivo
[22] = Tmax in rat at 3 mg/kg, po by LC-MS/MS analysis; type: ADME, organism-based; conditions: in vivo
[23] = AUClast in mouse at 3 mg/kg, po by LC-MS/MS analysis; type: ADME, organism-based; parameters: time 0 - last, route oral, dose 3 mg/kg; conditions: in vivo
[24] = Half life in rat at 3 mg/kg, po by LC-MS/MS analysis; type: ADME, organism-based; conditions: in vivo
[25] = Bioavailability in mouse at 1 mg/kg, iv by LC-MS/MS analysis; type: ADME, organism-based; conditions: in vivo

Compound: Cc1cnc(Oc2ccc3nc(COc4cccc(C(=O)O)c4)n(C)c3c2)c(C)c1
- clearance [1]: 2.06 mL/min/kg
- remaining at 0.5 h [2]: 80%
- bioavailability [3]: 89%

Compound: COc1cc(Oc2ccc(C)nc2C)cc2c1nc(COc1cccc(C(=O)O)c1)n2C
- logD at 0.5 h [4]: 1.2

Compound: COc1cc(Oc2ccc3nc(COc4cccc(C(=O)O)c4)n(C)c3n2)cc(C)n1
- logD at 0.5 h [4]: 1.2
- clearance [1]: 2.08 mL/min/kg
- half-life [5]: 7.3 h
- Cmax [6]: 500 ng/mL
- remaining at 0.5 h [7]: 91%
- remaining at 0.5 h [2]: 100%
- Vd [8]: 0.35 L/kg
- bioavailability [3]: 18%
- AUC(0-t) [9]: 5120 ng·h/mL
- Tmax [10]: 4.5 h
- remaining at 0.5 h [11]: 98%

Compound: Cn1c(COc2cccc(C(=O)O)c2)nc2ccc(Oc3cccnc3)cc21
- logD at 0.5 h [4]: 0.5
- remaining at 0.5 h [7]: 100%

Compound: COc1cc(Oc2ccc3nc(COc4cccc(C(=O)O)c4)n(C)c3c2)cc(C)n1
- logD at 0.5 h [4]: 1.7
- remaining at 0.5 h [7]: 96%
- remaining at 0.5 h [2]: 85%
- remaining at 0.5 h [11]: 96%

Compound: Cc1ccc(Oc2ccc3nc(COc4cccc(C(=O)O)c4)n(C)c3c2F)c(C)n1
- bioavailability [12]: 74%
- logD at 0.5 h [4]: 1.6
- clearance [1]: 0.4 mL/min/kg
- half-life [5]: 9.34 h
- Vd [13]: 0.27 L/kg
- Cmax [6]: 28800 ng/mL
- Cmax [14]: 1290 ng/mL
- clearance [15]: 1.29 mL/min/kg
- remaining at 0.5 h [7]: 100%
- clearance [16]: 4.91 mL/min/kg
- AUC(0-t) [17]: 28000 ng·h/mL
- half-life [18]: 4.35 h
- remaining at 0.5 h [2]: 100%
- Cmax [19]: 3490 ng/mL
- Vd [20]: 0.62 L/kg
- Tmax [21]: 0.5 h
- Vd [8]: 0.15 L/kg
- bioavailability [3]: 76%
- Tmax [22]: 2.25 h
- AUC(0-t) [23]: 2070 ng·h/mL
- AUC(0-t) [9]: 128000 ng·h/mL
- half-life [24]: 3.45 h
- Tmax [10]: 0.5 h
- remaining at 0.5 h [11]: 100%
- bioavailability [25]: 21%

Compound: CCOc1cc(Oc2ccc3nc(COc4cccc(C(=O)O)c4)n(C)c3c2)ccn1
- logD at 0.5 h [4]: 1.8
- remaining at 0.5 h [7]: 94%

Compound: COc1cc(Oc2cc(OC(C)C)c3nc(COc4cccc(C(=O)O)c4)n(C)c3c2)ccn1
- logD at 0.5 h [4]: 2
- remaining at 0.5 h [7]: 97%
- remaining at 0.5 h [2]: 94%
- remaining at 0.5 h [11]: 91%

Compound: CCOc1cc(Oc2ccnc(OC)c2)cc2c1nc(COc1cccc(C(=O)O)c1)n2C
- logD at 0.5 h [4]: 1.7
- remaining at 0.5 h [7]: 100%

Compound: CCOc1cc(Oc2ncc(C)cc2C)cc2c1nc(COc1cccc(C(=O)O)c1)n2C
- logD at 0.5 h [4]: 1.7
- remaining at 0.5 h [7]: 100%

Compound: CCCOc1cc(Oc2ccc(C)nc2C)cc2c1nc(COc1cccc(C(=O)O)c1)n2C
- logD at 0.5 h [4]: 2.2

Compound: COc1ncccc1Oc1ccc2nc(COc3cccc(C(=O)O)c3)n(C)c2c1
- logD at 0.5 h [4]: 0.9

Compound: Cc1ncccc1Oc1ccc2nc(COc3cccc(C(=O)O)c3)n(C)c2c1
- logD at 0.5 h [4]: 1
- remaining at 0.5 h [7]: 98%

Compound: Cc1ccncc1Oc1ccc2nc(COc3cccc(C(=O)O)c3)n(C)c2c1
- logD at 0.5 h [4]: 0.8
- remaining at 0.5 h [7]: 100%

Compound: COc1ncc(Oc2ccc3nc(COc4cccc(C(=O)O)c4)n(C)c3c2)cc1C
- logD at 0.5 h [4]: 2
- remaining at 0.5 h [7]: 100%
- remaining at 0.5 h [2]: 98%
- remaining at 0.5 h [11]: 82%

Compound: COc1cc(Oc2cc(C)c3nc(COc4cccc(C(=O)O)c4)n(C)c3c2)ccn1
- logD at 0.5 h [4]: 1.7
- remaining at 0.5 h [7]: 100%

Compound: COc1cc(Oc2ccc3nc(COc4cccc(C(=O)O)c4)n(C)c3c2)ccn1
- logD at 0.5 h [4]: 1.3
- remaining at 0.5 h [7]: 98%
- remaining at 0.5 h [2]: 100%
- remaining at 0.5 h [11]: 100%

Compound: Cc1cncc(Oc2ccc3nc(COc4cccc(C(=O)O)c4)n(C)c3c2)c1
- logD at 0.5 h [4]: 1

Compound: Cc1ccc(Oc2ccc3nc(COc4cccc(C(=O)O)c4)n(C)c3c2)cn1
- logD at 0.5 h [4]: 0.8
- remaining at 0.5 h [7]: 87%

Compound: Cc1ccc(Oc2cc(C)c3nc(COc4cccc(C(=O)O)c4)n(C)c3c2)c(C)n1
- logD at 0.5 h [4]: 1.7
- remaining at 0.5 h [7]: 100%

Compound: COc1ccc(Oc2ccc3nc(COc4cccc(C(=O)O)c4)n(C)c3c2)cn1
- logD at 0.5 h [4]: 1.3

Compound: Cc1cc(Oc2ccc3nc(COc4cccc(C(=O)O)c4)n(C)c3c2)cc(C)n1
- logD at 0.5 h [4]: 1

Compound: Cc1ccc(Oc2ccc3nc(COc4cccc(C(=O)O)c4)n(C)c3c2C)c(C)n1
- logD at 0.5 h [4]: 1.8

Compound: Cc1ccc(Oc2cc(OC(C)C)c3nc(COc4cccc(C(=O)O)c4)n(C)c3c2)c(C)n1
- logD at 0.5 h [4]: 1.9
- remaining at 0.5 h [7]: 91%
- remaining at 0.5 h [2]: 81%
- remaining at 0.5 h [11]: 65%

Compound: Cc1cc(Oc2ccc3nc(COc4cccc(C(=O)O)c4)n(C)c3c2)ccn1
- logD at 0.5 h [4]: 0.9
- remaining at 0.5 h [7]: 100%

Compound: Cc1ccc(Oc2ccc3nc(COc4cccc(C(=O)O)c4)n(C)c3c2)c(C)n1
- logD at 0.5 h [4]: 1.3
- remaining at 0.5 h [7]: 100%
- remaining at 0.5 h [2]: 100%
- remaining at 0.5 h [11]: 100%

Compound: Cn1c(COc2cccc(C(=O)O)c2)nc2ccc(Oc3ccnc(Cl)c3)cc21
- logD at 0.5 h [4]: 1.1

Compound: CCOc1cc(Oc2ccc(C)nc2C)cc2c1nc(COc1cccc(C(=O)O)c1)n2C
- logD at 0.5 h [4]: 1.6
- remaining at 0.5 h [7]: 100%

Compound: COc1nc(C)ccc1Oc1ccc2nc(COc3cccc(C(=O)O)c3)n(C)c2c1
- logD at 0.5 h [4]: 1.4

Compound: Cc1cnc(Oc2cc(OC(C)C)c3nc(COc4cccc(C(=O)O)c4)n(C)c3c2)c(C)c1
- logD at 0.5 h [4]: 2
- remaining at 0.5 h [7]: 96%
- remaining at 0.5 h [2]: 84%
- remaining at 0.5 h [11]: 13%

Compound: CCc1cc(Oc2ccc3nc(COc4cccc(C(=O)O)c4)n(C)c3c2)ccn1
- logD at 0.5 h [4]: 1.3
- remaining at 0.5 h [7]: 88%

Compound: COc1cc(Oc2ccc3nc(COc4cccc(C(=O)O)c4)n(C)c3c2F)ccn1
- logD at 0.5 h [4]: 1.7
- remaining at 0.5 h [7]: 97%

Compound: COc1cncc(Oc2ccc3nc(COc4cccc(C(=O)O)c4)n(C)c3c2)c1
- logD at 0.5 h [4]: 0.9

Compound: COc1ccc(Oc2ccc3nc(COc4cccc(C(=O)O)c4)n(C)c3c2)c(C)n1
- logD at 0.5 h [4]: 1.7
